Experiments:
PDE4D5 = target: T1, PDE4D5 (Homo sapiens, UniProt Q08499); assay: PDE assay, activation of PDE4D5 long form (Experiment 1); type: biochemical; conditions: for activation at 100 µM: 100 μM test compound, mean % increase in counts over basal activity
T1 construct: Using Full-Length Human PDE4 Isoforms; Long Forms PDE4D5, PDE4C3, PDE4B1 and Short Form PDE4B2; made in house; cytosol fraction of cell lysate
Experimental: (§1) One suitable method of detecting whether or not a compound is capable of serving as an activator of a PDE4 long form is using a two-step radio-assay procedure described in Experiment 1. In summary, the method involves incubating a PDE4 long form with a test small molecule activator, together with [^3H]-labelled cAMP to assess alterations in the breakdown of cAMP to the 5′-adenosine monophosphate (5′-AMP) product. A sample of the reaction mixture from such an incubation is subsequently treated with snake venom 5′-nucleotidase to allow conversion of the nucleotide [^3H]-labelled 5′-AMP to the uncharged nucleoside [^3H]-labelled adenosine, which can be separated and quantified to assess PDE4 activity and the effect of the test compound (Thompson, W. J. and Appleman, M. M. Biochemistry 10: 311-316, 1971, with some modifications as described in: Marchmont, R. J. and Houslay, M. D. Biochem J. 187: 381-92, 1980).
(§2) Experiment 1: Measurement of Modulation of Enzyme Activity by PDE4 Long Form Activators of the Present Invention Using Full-Length Human PDE4 Isoforms; Long Forms PDE4D5, PDE4C3, PDE4B1 and Short Form PDE4B2 • (Marchmont, R. J. and Houslay, M. D. Biochem. J. 187: 381-92, 1980)
For transient transfection of exogenous PDE4 long isoforms, HEK 293 cells were transfected with pcDNA3.1 or pDEST^TM PDE4 expression vectors using Lipofectamine LTX/Plus reagent (Invitrogen) as outlined by the manufacturer.
(§3) Where stable cell lines were generated the clonal isolates were expanded to obtain cell lines that stably expressed the full-length human PDE4 long isoforms and the full length human PDE4B2 short isoform. These were called the HEK-PDE4D5, HEK-PDE4B1 and HEK-PDE4B2 cell lines, respectively.
HEK-PDE4D5 cells were seeded out in 100 mm plates and incubated at 37° C. in an atmosphere of 5% CO2, 95% air. Cell lysates were prepared using KHEM buffer [50 mM KCl, 10 mM EGTA, 50 mM HEPES (pH 7.2), 1.92 mM MgCl2].
To prepare the cell lysates, the 100 mm plates containing the cells were placed on ice and washed with ice-cold PBS (phosphate buffered saline, pH 7.4). KHEM buffer (500 μL) was added to the cells. Cells were then scraped off the plate and triturated using a needle (BD Microlance™ 0.8, 40 mm). The lysed cells were then centrifuged at 2000 rpm for 10 minutes to remove cell debris and the supernatant (cell lysate containing recombinant PDE4D5) was transferred to a fresh tube and kept on ice.
The cell lysate containing recombinant PDE4D5 was transferred into a centrifuge tube and placed into an ultracentrifuge (BECKMAN COULTER) and spun at high speed (100,000 g) for 30 minutes at 4° C. The cytosol fraction was then collected and its protein amount determined using a BCA protein assay.
PDE assays were performed in thin walled V-bottomed 96-well plates. The assays were performed at a final concentration of 10 mM Tris/5 mM MgCl2 plus PDE4D5 cell lysate cytosol fraction, containing over-expressed PDE4D5, with and without test compound. The lysate/compound mix were incubated together for 15 min at room temperature on an orbital shaker prior to addition of [^3H] cAMP (final concentration 1 μM [^3H] cAMP; Perkin Elmer) to a final volume of 50 μL per reaction. The reactions were then incubated for 10 minutes at 30° C., terminated by heating for 2 min at 95° C. and allowed to cool. Snake venom (12.5 μL of 1 mg/mL; Crotalus atrox, Sigma) was then added and the plates were agitated and incubated for a further 15 minutes at 30° C. Dowex ion exchange resin (Sigma, chloride form, 200-400 mesh; 200 μL; prepared as a 1:1 Dowex:water stock, thoroughly re-suspended and diluted 2:1 with ethanol) was then added to each well and the plates incubated for 15 min at room temperature on an orbital shaker ensuring sufficient agitation for resin suspension (550 RPM). The reaction mixture was then transferred to a 96 well filter plate (Millipore; 0.45 μm pore size) and filtered into a receiving 96-well plate to remove the dowex suspension. […]

PDE4B2 = target: T2, PDE4B2 (Homo sapiens, UniProt Q07343); assay: PDE assay, PDE4B2 short form (Experiment 1); type: biochemical; conditions: 100 μM test compound; mean % increase in counts over basal activity
T2 construct: the full length human PDE4B2 short isoform; made in house; cytosol fraction of cell lysate, prepared as described for PDE4D5
T2 sequence (Q07343 1-564 isoform Q07343-2): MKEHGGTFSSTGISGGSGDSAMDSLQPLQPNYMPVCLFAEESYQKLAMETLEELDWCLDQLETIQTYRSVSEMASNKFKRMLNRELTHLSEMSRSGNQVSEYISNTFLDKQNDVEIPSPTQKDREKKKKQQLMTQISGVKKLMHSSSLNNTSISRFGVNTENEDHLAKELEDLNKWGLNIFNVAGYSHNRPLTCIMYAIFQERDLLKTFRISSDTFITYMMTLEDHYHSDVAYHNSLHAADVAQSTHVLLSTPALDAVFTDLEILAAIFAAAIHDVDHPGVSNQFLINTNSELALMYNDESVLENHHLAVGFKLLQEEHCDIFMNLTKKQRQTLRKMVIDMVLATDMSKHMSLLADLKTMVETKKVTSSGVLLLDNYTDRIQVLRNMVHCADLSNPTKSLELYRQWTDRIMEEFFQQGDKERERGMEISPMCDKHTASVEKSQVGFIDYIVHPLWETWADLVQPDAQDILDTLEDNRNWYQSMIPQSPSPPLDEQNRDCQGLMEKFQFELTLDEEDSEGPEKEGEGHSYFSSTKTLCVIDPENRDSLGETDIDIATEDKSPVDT
Experimental: as §1, §2, §3
PDE assays were performed in thin walled V-bottomed 96-well plates. The assays were performed at a final concentration of 10 mM Tris/5 mM MgCl2 plus PDE4D5 cell lysate cytosol fraction, containing over-expressed PDE4D5, with and without test compound. The lysate/compound mix were incubated together for 15 min at room temperature on an orbital shaker prior to addition of [^3H] cAMP (final concentration 1 μM [^3H] cAMP; Perkin Elmer) to a final volume of 50 μL per reaction. The reactions were then incubated for 10 minutes at 30° C., terminated by heating for 2 min at 95° C. and allowed to cool. Snake venom (12.5 μL of 1 mg/mL; Crotalus atrox, Sigma) was then added and the plates were agitated and incubated for a further 15 minutes at 30° C. Dowex ion exchange resin (Sigma, chloride form, 200-400 mesh; 200 μL; prepared as a 1:1 Dowex:water stock, thoroughly re-suspended and diluted 2:1 with ethanol) was then added to each well and the plates incubated for 15 min at room temperature on an orbital shaker ensuring sufficient agitation for resin suspension (550 RPM). The reaction mixture was then transferred to a 96 well filter plate (Millipore; 0.45 μm pore size) and filtered into a receiving 96-well plate to remove the dowex suspension. 30 μL of the filtered solution was then transferred to the wells of an Opti-plate (Perkin Elmer) 96 well assay plate and 120 μL of Microscint 40 scintillation fluid was added. The plate was then placed on an orbital shaker for 10 min at high speed (900 rpm) to mix the sample with scintillation fluid prior to quantitation using a plate based scintillation counter (Top-Count).
The % increase in counts in the presence of test compound at a particular concentration indicates the % increase in enzyme activity at that concentration.

T1 sequence (Q08499 1-745 isoform Q08499-6): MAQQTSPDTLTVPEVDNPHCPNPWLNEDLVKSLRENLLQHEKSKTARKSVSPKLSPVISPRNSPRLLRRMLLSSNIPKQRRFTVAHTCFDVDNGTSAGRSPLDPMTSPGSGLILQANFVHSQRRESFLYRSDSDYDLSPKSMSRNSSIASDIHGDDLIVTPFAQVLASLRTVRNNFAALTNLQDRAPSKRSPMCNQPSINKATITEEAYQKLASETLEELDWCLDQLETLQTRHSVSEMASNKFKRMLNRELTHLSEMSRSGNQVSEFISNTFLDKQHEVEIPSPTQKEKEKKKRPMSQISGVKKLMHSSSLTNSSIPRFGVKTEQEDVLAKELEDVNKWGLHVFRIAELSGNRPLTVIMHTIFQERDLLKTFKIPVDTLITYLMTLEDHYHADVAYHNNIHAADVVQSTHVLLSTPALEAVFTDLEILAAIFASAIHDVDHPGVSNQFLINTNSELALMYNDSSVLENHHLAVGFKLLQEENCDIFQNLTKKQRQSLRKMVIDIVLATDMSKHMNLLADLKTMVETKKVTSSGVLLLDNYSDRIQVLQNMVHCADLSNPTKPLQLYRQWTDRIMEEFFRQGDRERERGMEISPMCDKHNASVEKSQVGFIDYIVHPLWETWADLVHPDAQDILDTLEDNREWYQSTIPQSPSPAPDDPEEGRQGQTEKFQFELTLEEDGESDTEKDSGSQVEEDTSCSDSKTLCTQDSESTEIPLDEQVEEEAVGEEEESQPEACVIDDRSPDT

Compound | activation at 100 µM (PDE4D5) [%] | activation of PDE4D5 (FIG. 1) (PDE4D5; concentration-response) | activation at 100 µM (PDE4B2) [%]
Cc1cncc(-c2nc3cc(C(=O)N[C@H]4CCOc5ccccc54)ccc3[nH]2)c1 [Example 4, (S)—N-(chroman-4-yl)-2-(5-methylpyridin-3-yl)-1H-benzo[d]imidazole-5-carboxamide] | 140 | concentration-dependent activation | -6
Cc1cncc(-c2nc3ccc(C(=O)N[C@H]4CCOc5ccccc54)cc3n2C)c1 [Example 28, (S)—N-(chroman-4-yl)-1-methyl-2-(5-methylpyridin-3-yl)-1H-benzo[d]imidazole-6-carboxamide] | 45 | – | 5
Cc1ccc(-c2nc3cc(C(=O)N[C@H]4CCOc5ccccc54)ccc3[nH]2)cn1 [Example 2, (S)—N-(chroman-4-yl)-2-(6-methylpyridin-3-yl)-1H-benzo[d]imidazole-5-carboxamide] | 115 | – | -39
Cc1ccncc1-c1nc2cc(C(=O)N[C@H]3CCOc4ccccc43)ccn2n1 [Example 53, (S)—N-(chroman-4-yl)-2-(4-methylpyridin-3-yl)-[1,2,4]triazolo[1,5-a]pyridine-7-carboxamide] | 33 | – | -8

— patent publication US20260007680A1, “Compounds and Their Use as PDE4 Activators” (Mironid Limited, priority 2022, published 2026)
